Laboratory results as given in paper PMC9194936, “Preclinical Activity and Pharmacokinetic/Pharmacodynamic Relationship for a Series of Novel Benzenesulfonamide Perforin Inhibitors” (ACS Pharmacology & Translational Science, 2022).

Legend:
[1] = One-compartment pharmacokinetic model simulations; set-up: species or system mouse
Method: For determination of plasma concentrations of 1, C57BL/6 mice were treated with a single dose of 1 at four different dose levels (160, 120, 80, and 10 mg/kg) and blood samples were collected at multiple timepoints after dosing. Overall, the pharmacokinetics followed a dose-dependent relationship that was close to linear (Figure 3A). […] To confirm the accuracy of the simulations, C57BL/6 mice were treated intraperitoneally with 80, 120, or 160 mg/kg dose of 1 and the resulting plasma concentrations were evaluated at multiple time points within a 24 h period after one (0 h), two (0, 18 h) or three (0, 9 h, 18 h) doses.
Given the high concentrations required, there is potential for saturation of plasma protein binding to occur, where small dose increments could cause large increases in unbound concentrations.[35]
Test samples were diluted up to 100-fold in blank plasma as necessary and quantitated against a calibration curve of known analyte concentrations ranging from 3 nM to 30 μM in an appropriate matrix and quality controls at 0.03, 0.3, 3, and 30 μM. Pharmacokinetic parameters were evaluated using noncompartmental analysis and pharmacokinetic simulations using one-compartment analysis on Phoenix WinNonlin version 6.2 (Certara, Princeton, NJ). Multiple-dose simulations were generated from parameters derived from single-dose simulations.

[2] = set-up: method as in PMID 28582670; AUC: concentration or dose not given beside the values; settings: mouse plasma; cited from earlier work

## CN1Cc2cc(-c3ccc(-c4cncc(NS(=O)(=O)c5ccccc5[N+](=O)[O-])c4)s3)ccc2C1=O [Compound 1, N-{5-[5-(2-methyl-1-oxo-2,3-dihydro-1H-isoindol-5-yl)-2-thienyl]-3-pyridinyl}-2-nitrobenzenesulfonamide]
[1]; 80 mg/kg three-dose schedule
  duration that plasma concentration achieved 350 μM: 14.9 h
[1]; two doses of 120 mg/kg
  duration that plasma concentration achieved 350 μM: 12.0 h
[1]; two doses of 160 mg/kg
  duration that plasma concentration achieved 350 μM: 13.4 h
[2]
  AUC: 415 µM·h
  Cmax: 105 µM
